US20170152226A1, “FUNCTIONALISED AND SUBSTITUTED INDOLES AS ANTI-CANCER AGENTS” (Novogen Ltd., priority 2014, published 2017)

Key:
[1] = system: A2058; assay: Anti-proliferative activity, MTS viability assay; type: cell-based; conditions: Homo sapiens, 72 hours exposure, read-out: IC50 Melanoma A2058
Description: (§1) The anti-proliferative activity of compound 3507 was further evaluated in cell lines representative of melanoma, prostate cancer, leukaemia and neuroblastoma. Cell viability after 72 hours exposure to increasing concentrations of compound 3507 was measured using an MTS viability assay. Cell viability was normalized to control (vehicle alone) and dose-response curves, and relative inhibitory concentration (IC50) values were determined using GraphPad Prism 6.

[2] = system: CHLA-20; assay: Anti-proliferative activity, MTS viability assay; type: cell-based; conditions: 72 hours exposure, read-out: IC50 Neuroblastoma CHLA-20
Description: as §1

[3] = system: MM329; assay: Anti-proliferative activity, MTS viability assay; type: cell-based; conditions: 72 hours exposure, read-out: IC50 Melanoma MM329
Description: as §1

[4] = system: MM415; assay: Anti-proliferative activity, MTS viability assay; type: cell-based; conditions: 72 hours exposure, read-out: IC50 Melanoma MM415
Description: as §1

[5] = system: MM96L; assay: Anti-proliferative activity, MTS viability assay; type: cell-based; conditions: Homo sapiens, 72 hours exposure, read-out: IC50 Melanoma MM96L
Description: as §1

[6] = system: IFN-γ; assay: Inhibition of cytokine release from PBMCs (HTRF); type: cell-based; conditions: PBMC, human PBMCs, PMA and ionomycin stimulated
Description: (§2) The ability of compounds 3507, 3520, 3534 and 3538 to inhibit the release of cytokines TNF-α, IFN-γ, IL-6, IL-21, IL-17A and IL-23 was evaluated in vitro (Tables 4 and 5). Briefly, human peripheral blood mononuclear cells (PBMCs) were isolated from human peripheral blood by Histopaque density gradient centrifugation. The freshly isolated PBMCs were seeded at 50,000 cells/well in a 96-well half area plate. PBMCs were dosed with the test compounds (at 10 μM, 1 μM and 0.1 μM) and then incubated at 37° C. and 5% CO2 for 2 hours. To stimulate release of the cytokines IFN-γ, IL-21, IL-17A and IL-23, the PBMCs were treated with 50 ng/mL of phorbol 12-myristate 13-acetate (PMA) and 1 μg/mL of ionomycin and to stimulate the release of TNF-α and IL-6, PBMCs were treated with 100 ng/mL of lipopolysaccharide (LPS) from gram-negative bacteria. The PBMCs were then incubated at 37° C. and 5% CO2 for a further 6 hours and the cell supernatant was collected and a Homogenous Time Resolved Fluorescence (HTRF) assay was carried out following the manufacturer's instructions. Cytokine release from the PBMCs was captured using a Perkin Elmer ENVISION 2104 microplate reader set at 615 nm and 665 nm respectively.

[7] = system: IL-17A; assay: Inhibition of cytokine release from PBMCs (HTRF); type: cell-based; conditions: PBMC, human PBMCs, PMA and ionomycin stimulated
Description: as §2

[8] = system: IL-21; assay: Inhibition of cytokine release from PBMCs (HTRF); type: cell-based; conditions: PBMC, human PBMCs, PMA and ionomycin stimulated
Description: as §2

[9] = system: IL-23; assay: Inhibition of cytokine release from PBMCs (HTRF); type: cell-based; conditions: PBMC, human PBMCs, PMA and ionomycin stimulated
Description: as §2

[10] = system: IL-6; assay: Inhibition of cytokine release from PBMCs (HTRF); type: cell-based; conditions: PBMC, human PBMCs, LPS stimulated
Description: as §2

[11] = system: TNF-α; assay: Inhibition of cytokine release from PBMCs (HTRF); type: cell-based; conditions: PBMC, human PBMCs, LPS stimulated
Description: as §2

[12] = system: A375 tumours; assay: Human melanoma (A375) xenograft model; type: in vivo; conditions: 60 mg/kg intravenously twice a week
Description: FIG. 5: Compound 3507/30% w/v Dexolve-7 was administered IV 2×/week at 60 mg/kg for 14 days in a flank xenograft model of melanoma (A375). Tumour volume was measured every 2-3 days. ** p<0.01.
The in vivo efficacy of 3507 was also evaluated in a human melanoma (A375) xenograft model. A375 tumours were established in female Foxn-1 nu/nu athymic mice by injecting approximately five million cells subcutaneously in the right flank region of the animal. When the tumours reached 130-150 mm^3 the animals were randomized into four groups, (n=8 or 12 animals/group) so that the average tumour volume of all the groups was same. Group 1 received vehicle (30% w/v Dexolve-7 in sterile water) twice a week intravenously, and Group 2 was dosed with 3507/Dexolve-7 at 60 mg/kg, twice a week intravenously. Tumours and body weight was measured two to three times in a week. In addition, throughout the study period mice were monitored daily for clinical condition.

**Q.** What does the source list for Cc1c(C)n(CCCN2CCN(C)CC2)c2ccc(Oc3cccc(C(=O)N4CCN(CCc5ccc(F)cc5)CC4)c3)cc12 [Compound 3507, (3-((2,3-dimethyl-1-(3-(4-methylpiperazin-1-yl)propyl)-1H-indol-5-yl)oxy)phenyl)(4-(4-fluorophenethyl)piperazin-1-yl)methanone]?
**A.** IC50 [1]: 4.06 µM; IC50 [2]: 6.9 µM; IC50 [3]: 3.8 µM; IC50 [4]: 4.67 µM; IC50 [5]: 3.27 µM; inhibition at 0.1 µM ([6]; 0.1 μM): 16%; inhibition at 1 µM ([6]; 1 μM): 42%; inhibition at 10 µM ([6]; 10 μM): 77%; inhibition at 0.1 µM ([7]; 0.1 μM): 2%; inhibition at 1 µM ([7]; 1 μM): 4%; inhibition at 10 µM ([7]; 10 μM): 13%; inhibition at 0.1 µM ([8]; 0.1 μM): -6%; inhibition at 1 µM ([8]; 1 μM): 5%; inhibition at 10 µM ([8]; 10 μM): 19%; inhibition at 0.1 µM ([9]; 0.1 μM): -7%; inhibition at 1 µM ([9]; 1 μM): 0%; inhibition at 10 µM ([9]; 10 μM): 20%; inhibition at 0.1 µM ([10]; 0.1 μM): -9%; inhibition at 1 µM ([10]; 1 μM): 21%; inhibition at 10 µM ([10]; 10 μM): 68%; inhibition at 0.1 µM ([11]; 0.1 μM): 52%; inhibition at 1 µM ([11]; 1 μM): 68%; inhibition at 10 µM ([11]; 10 μM): 90%; tolerability [12]: well tolerated; reduction of melanoma tumour growth compared to vehicle control ([12]; after 14 days treatment): ~60%; body weights ([12]; throughout the study period): comparable to the control group
